Assay results published in patent EP4707280A1, “1,4-CINEOLE DERIVATIVE AND INTERMEDIATE THEREOF, HERBICIDE CONTAINING SAID DERIVATIVE AS ACTIVE INGREDIENT, METHOD FOR USING HERBICIDE, AND METHOD FOR PREPARING AGROCHEMICAL COMPOSITION” (HOKKO CHEMICAL INDUSTRY CO., LTD., priority 2023, dated 2024).

Key:
Type in all cases: in vivo
[1] = system: Echinochloa crus-galli var. formosensis; assay: Test Example 2: herbicidal effect test by application during growth period of paddy rice; settings: 120 g per 10 ares, applied seven days after sowing, flooded pots, 14 days after application; for inhibition at 1200 g/ha: Echinochloa crus-galli, read-out: weed inhibition rate
Procedure, shortened: (§1)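 Flooded paddy pot test, greenhouse. Seeds 30/species, 0–1 cm depth, water ~3 cm. EC diluted in water, dropper-applied 7 d post-sowing at 120 g a.i./10 a. Inhibition rate (%) read 14 d after treatment; n=2.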

Scirpus juncoides [2] = assay: as above; settings: 120 g per 10 ares, applied seven days after sowing, flooded pots, 14 days after application; for inhibition at 1200 g/ha: Schoenoplectiella juncoides, read-out: weed inhibition rate
Procedure, shortened: as §1

Digitaria ciliaris [3] = assay: Test Example 8: herbicidal effect test by stem and leaf treatment in upland field (low dose); settings: 7.5 g per 10 ares, sprayed seven days after sowing, upland soil, 14 days after application; for inhibition at 75 g/ha: Digitaria ciliaris, read-out: weed inhibition rate
Experimental: (§2) The present test was conducted in duplicate for each chemical concentration group, and the weed inhibition rate (%) was determined 14 days after chemical application using the following formula (Math. 1). [formula]
(§3) Pots with an area of 36 cm^2 were filled with upland soil (alluvial loam), twenty seeds each of weeds of Digitaria ciliaris, and Echinochloa crus-galli were uniformly mixed with the top 1 cm layer of soil and the surface was lightly pressed down. Seven days after sowing, an emulsifiable concentrate prepared according to Formulation Example 5 using the compound shown below was diluted with water, and the diluted solution was sprayed onto the soil surface at a rate of 100 liters per 10 ares. The amount of the active ingredient to be applied was equivalent to 7.5 g per 10 ares. Fourteen days after chemical application, the herbicidal effect was evaluated according to the same criteria as in Test Example 1.

Echinochloa crus-galli [4] = assay: as above; settings: 7.5 g per 10 ares, sprayed seven days after sowing, upland soil, 14 days after application; for inhibition at 75 g/ha: Echinochloa crus-galli, read-out: weed inhibition rate
Experimental: as §2, §3

Digitaria ciliaris [5] = assay: Test Example 4: herbicidal effect test by stem and leaf treatment in upland field; settings: 120 g per 10 ares, sprayed seven days after sowing, upland soil, 14 days after application; for inhibition at 1200 g/ha: Digitaria ciliaris, read-out: weed inhibition rate
[6] = system: Echinochloa crus-galli var. formosensis; assay: Test Example 5: herbicidal effect test by soil application in paddy rice (low dose); settings: 7.5 g per 10 ares, applied immediately after sowing, flooded pots, 14 days after application; for inhibition at 75 g/ha: Echinochloa crus-galli, soil, 336 h, read-out: weed inhibition rate
Procedure, shortened: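 Pre-emergence paddy test: seeds sown 0–1 cm (30 each), pots flooded ~3 cm, greenhouse. EC dilution dropped into water right after sowing, 7.5 g a.i./10 a. Duplicate pots; weed inhibition rate (%) by formula, day 14.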

[7] = system: Echinochloa crus-galli var. formosensis; assay: Test Example 6: herbicidal effect test by application during growth period of paddy rice (low dose); settings: 7.5 g per 10 ares, applied seven days after sowing, flooded pots, 14 days after application; for inhibition at 75 g/ha: Echinochloa crus-galli, read-out: weed inhibition rate
Procedure, shortened: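 Paddy-soil pots, flooded ~3 cm after sowing weed seeds at 0-1 cm depth, greenhouse-grown. Seven days after sowing, diluted emulsifiable concentrate applied by dropper at 7.5 g active ingredient per 10 ares. Weed inhibition rate (%) scored 14 days after application, in duplicate.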

Digitaria ciliaris [8] = assay: Test Example 3: herbicidal effect test by soil application in upland field; settings: 120 g per 10 ares, sprayed one day after sowing, 14 days after application; for inhibition at 1200 g/ha: Digitaria ciliaris, read-out: weed inhibition rate
Procedure, shortened: (§4)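 Pre-emergence test: seeds mixed into top 1 cm of alluvial loam upland soil in pots; emulsifiable concentrate diluted in water sprayed on soil one day after sowing at 100 L/10 a, 120 g a.i./10 a. Weed inhibition rate (%) scored at 14 days, in duplicate.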

Echinochloa crus-galli [9] = assay: as above; settings: 120 g per 10 ares, sprayed one day after sowing, 14 days after application; for inhibition at 1200 g/ha: Echinochloa crus-galli, read-out: weed inhibition rate
Procedure, shortened: as §4

Echinochloa crus-galli [10] = assay: Test Example 4: herbicidal effect test by stem and leaf treatment in upland field; settings: 120 g per 10 ares, sprayed seven days after sowing, upland soil, 14 days after application; for inhibition at 1200 g/ha: Echinochloa crus-galli, read-out: weed inhibition rate
Digitaria ciliaris [11] = assay: Test Example 7: herbicidal effect test by soil application in upland field (low dose); settings: 7.5 g per 10 ares, sprayed one day after sowing, 14 days after application; for inhibition at 75 g/ha: Digitaria ciliaris, read-out: weed inhibition rate
Experimental: as §2
as §3, with “One day” for “Seven days”

Echinochloa crus-galli [12] = assay: as above; settings: 7.5 g per 10 ares, sprayed one day after sowing, 14 days after application; for inhibition at 75 g/ha: Echinochloa crus-galli, read-out: weed inhibition rate
Experimental: as §2
as §3, with “One day” for “Seven days”

[13] = system: Echinochloa crus-galli var. formosensis; assay: Test Example 1: herbicidal effect test by soil application in paddy rice; settings: 120 g active ingredient per 10 ares, applied immediately after sowing, flooded pots, 14 days after application; for pest or weed control at 1200 g/ha: Echinochloa crus-galli, soil, 336 h, read-out: weed inhibition rate
Procedure, shortened: (§5)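 Paddy soil in Wagner pots (1/10,000 acre), fertilized and puddled; 30 seeds per species sown at 0–1 cm, flooded to ~3 cm, greenhouse. Water-diluted emulsifiable concentrate dropped onto flooded pots right after sowing at 120 g active ingredient per 10 ares.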

Scirpus juncoides [14] = assay: as above; settings: 120 g active ingredient per 10 ares, applied immediately after sowing, flooded pots, 14 days after application; for pest or weed control at 1200 g/ha: Schoenoplectiella juncoides, soil, 336 h, read-out: weed inhibition rate
Procedure, shortened: as §5

CC(C)[C@]12CC(OCc3ccccc3)[C@](C)(C[C@@H]1Cl)O2 (mixture of isomers) [1-8, (1R,2S,4S,SR)-5-benzyloxy-2-chloro-1-isopropyl-4-methyl-7-oxabicyclo[2.2.1]heptane]
≥ 80%: inhibition at 1200 g/ha [1] | inhibition at 1200 g/ha (Scirpus juncoides [2]) | inhibition at 75 g/ha (Digitaria ciliaris [3]) | inhibition at 75 g/ha (Echinochloa crus-galli [4]) | inhibition at 1200 g/ha (Digitaria ciliaris [5]) | inhibition at 75 g/ha [6] | inhibition at 75 g/ha [7] | inhibition at 1200 g/ha (Digitaria ciliaris [8]) | inhibition at 1200 g/ha (Echinochloa crus-galli [9]) | inhibition at 1200 g/ha (Echinochloa crus-galli [10]) | inhibition at 75 g/ha (Digitaria ciliaris [11]) | inhibition at 75 g/ha (Echinochloa crus-galli [12]) | pest or weed control at 1200 g/ha [13] | pest or weed control at 1200 g/ha (Scirpus juncoides [14])

CC(C)[C@]12CC(OCc3c(Cl)cccc3Cl)[C@](C)(C[C@@H]1I)O2 (mixture of isomers) [1-779, (1R,2S,4S,SR)-5-[(2,6-dichlorophenyl)methoxy]-2-iodo-1-isopropyl-4-methyl-7-oxabicyclo[2.2.1]heptane]
≥ 80%: inhibition at 1200 g/ha [1] | inhibition at 1200 g/ha (Scirpus juncoides [2]) | inhibition at 75 g/ha (Digitaria ciliaris [3]) | inhibition at 75 g/ha (Echinochloa crus-galli [4]) | inhibition at 1200 g/ha (Digitaria ciliaris [5]) | inhibition at 75 g/ha [6] | inhibition at 75 g/ha [7] | inhibition at 1200 g/ha (Digitaria ciliaris [8]) | inhibition at 1200 g/ha (Echinochloa crus-galli [9]) | inhibition at 1200 g/ha (Echinochloa crus-galli [10]) | inhibition at 75 g/ha (Digitaria ciliaris [11]) | inhibition at 75 g/ha (Echinochloa crus-galli [12]) | pest or weed control at 1200 g/ha [13] | pest or weed control at 1200 g/ha (Scirpus juncoides [14])

CO[C@H]1C[C@]2(C)O[C@@]1(C(C)C)CC2OCC=C(C)C (mixture of isomers) [1-799, (1R,2S,4S,SR)-1-isopropyl-2-methoxy-4-methyl-5-(3-methylbut-2-enoxy)-7-oxabicyclo[2.2.1]heptane]
≥ 80%: inhibition at 1200 g/ha [1] | inhibition at 1200 g/ha (Scirpus juncoides [2]) | inhibition at 75 g/ha (Digitaria ciliaris [3]) | inhibition at 75 g/ha (Echinochloa crus-galli [4]) | inhibition at 1200 g/ha (Digitaria ciliaris [5]) | inhibition at 75 g/ha [6] | inhibition at 75 g/ha [7] | inhibition at 1200 g/ha (Digitaria ciliaris [8]) | inhibition at 1200 g/ha (Echinochloa crus-galli [9]) | inhibition at 1200 g/ha (Echinochloa crus-galli [10]) | inhibition at 75 g/ha (Digitaria ciliaris [11]) | inhibition at 75 g/ha (Echinochloa crus-galli [12]) | pest or weed control at 1200 g/ha [13] | pest or weed control at 1200 g/ha (Scirpus juncoides [14])

CC#CCOC1C[C@]2(C(C)C)O[C@@]1(C)C[C@@H]2OC (mixture of isomers) [1-801, (1R,2S,4S,SR)-5-but-2-ynoxy-1-isopropyl-2-methoxy-4-methyl-7-oxabicyclo[2.2.1]heptane]
≥ 80%: inhibition at 1200 g/ha [1] | inhibition at 1200 g/ha (Scirpus juncoides [2]) | inhibition at 75 g/ha (Digitaria ciliaris [3]) | inhibition at 75 g/ha (Echinochloa crus-galli [4]) | inhibition at 1200 g/ha (Digitaria ciliaris [5]) | inhibition at 75 g/ha [6] | inhibition at 75 g/ha [7] | inhibition at 1200 g/ha (Digitaria ciliaris [8]) | inhibition at 1200 g/ha (Echinochloa crus-galli [9]) | inhibition at 1200 g/ha (Echinochloa crus-galli [10]) | inhibition at 75 g/ha (Digitaria ciliaris [11]) | inhibition at 75 g/ha (Echinochloa crus-galli [12]) | pest or weed control at 1200 g/ha [13] | pest or weed control at 1200 g/ha (Scirpus juncoides [14])

CC(C)[C@]12C[C@@H](OCc3ccccc3F)[C@](C)(C[C@@H]1C)O2 (racemic) [1-1555, (1SR,2RS,4RS,5SR)-2-[(2-fluorophenyl)methoxy]-1,5-dimethyl-4-isopropyl-7-oxabicyclo[2.2.1]heptane]
≥ 80%: inhibition at 1200 g/ha [1] | inhibition at 1200 g/ha (Scirpus juncoides [2]) | inhibition at 75 g/ha (Digitaria ciliaris [3]) | inhibition at 75 g/ha (Echinochloa crus-galli [4]) | inhibition at 1200 g/ha (Digitaria ciliaris [5]) | inhibition at 75 g/ha [6] | inhibition at 75 g/ha [7] | inhibition at 1200 g/ha (Digitaria ciliaris [8]) | inhibition at 1200 g/ha (Echinochloa crus-galli [9]) | inhibition at 1200 g/ha (Echinochloa crus-galli [10]) | inhibition at 75 g/ha (Digitaria ciliaris [11]) | inhibition at 75 g/ha (Echinochloa crus-galli [12]) | pest or weed control at 1200 g/ha [13] | pest or weed control at 1200 g/ha (Scirpus juncoides [14])

CC(C)[C@]12C[C@@H](OCc3ccccc3F)[C@](C)(C=C1OS(=O)(=O)C(F)(F)F)O2 (racemic) [3-680]
≥ 80%: weed inhibition rate [1] | weed inhibition rate (Scirpus juncoides [2]) | weed inhibition rate (Digitaria ciliaris [3]) | weed inhibition rate (Echinochloa crus-galli [4]) | weed inhibition rate (Digitaria ciliaris [5]) | weed inhibition rate [6] | weed inhibition rate [7] | weed inhibition rate (Digitaria ciliaris [8]) | weed inhibition rate (Echinochloa crus-galli [9]) | weed inhibition rate (Echinochloa crus-galli [10]) | weed inhibition rate (Digitaria ciliaris [11]) | weed inhibition rate (Echinochloa crus-galli [12]) | weed inhibition rate [13] | weed inhibition rate (Scirpus juncoides [14])

Cc1ccccc1CO[C@@H]1C[C@]2(C(C)C)O[C@@]1(C)C[C@@H]2Cl [1-9, (1R,2S,4S,5R)-2-chloro-1-isopropyl-4-methyl-5-(o-tolylmethoxy)-7-oxabicyclo[2.2.1]heptane]
≥ 80%: inhibition at 1200 g/ha [1] | inhibition at 1200 g/ha (Scirpus juncoides [2]) | inhibition at 75 g/ha (Digitaria ciliaris [3]) | inhibition at 75 g/ha (Echinochloa crus-galli [4]) | inhibition at 1200 g/ha (Digitaria ciliaris [5]) | inhibition at 75 g/ha [6] | inhibition at 75 g/ha [7] | inhibition at 1200 g/ha (Digitaria ciliaris [8]) | inhibition at 1200 g/ha (Echinochloa crus-galli [9]) | inhibition at 1200 g/ha (Echinochloa crus-galli [10]) | inhibition at 75 g/ha (Digitaria ciliaris [11]) | inhibition at 75 g/ha (Echinochloa crus-galli [12]) | pest or weed control at 1200 g/ha [13] | pest or weed control at 1200 g/ha (Scirpus juncoides [14])

CC(C)C12CC(OCc3ccccc3I)C(C)(CC1I)O2 (stereo not shown) [1-1430, 2-iodo-5-[(2-iodophenyl)methoxy]-1-isopropyl-4-methyl-7-oxabicyclo[2.2.1]heptane]
≥ 80%: inhibition at 1200 g/ha [1] | inhibition at 1200 g/ha (Scirpus juncoides [2]) | inhibition at 75 g/ha (Digitaria ciliaris [3]) | inhibition at 75 g/ha (Echinochloa crus-galli [4]) | inhibition at 75 g/ha [6] | inhibition at 75 g/ha [7] | inhibition at 1200 g/ha (Digitaria ciliaris [8]) | inhibition at 1200 g/ha (Echinochloa crus-galli [9]) | inhibition at 1200 g/ha (Echinochloa crus-galli [10]) | inhibition at 75 g/ha (Digitaria ciliaris [11]) | inhibition at 75 g/ha (Echinochloa crus-galli [12]) | pest or weed control at 1200 g/ha [13] | pest or weed control at 1200 g/ha (Scirpus juncoides [14])

Cc1ccccc1COC1CC2(C(C)C)C=CC1(C)O2 (stereo not shown) [3-753, 4-methyl-5-[(2-methylphenyl)methoxy]-1-isopropyl-7-oxabicyclo[2.2.1]hept-2-ene]
≥ 80%: inhibition at 1200 g/ha [1] | inhibition at 1200 g/ha (Scirpus juncoides [2]) | inhibition at 75 g/ha (Digitaria ciliaris [3]) | inhibition at 75 g/ha (Echinochloa crus-galli [4]) | inhibition at 75 g/ha [6] | inhibition at 75 g/ha [7] | inhibition at 1200 g/ha (Digitaria ciliaris [8]) | inhibition at 1200 g/ha (Echinochloa crus-galli [9]) | inhibition at 1200 g/ha (Echinochloa crus-galli [10]) | inhibition at 75 g/ha (Digitaria ciliaris [11]) | inhibition at 75 g/ha (Echinochloa crus-galli [12]) | pest or weed control at 1200 g/ha [13] | pest or weed control at 1200 g/ha (Scirpus juncoides [14])
